Assay results from publication PMC10808224, “Lsr2 acts as a cyclic di-GMP receptor that promotes keto-mycolic acid synthesis and biofilm formation in mycobacteria” (Nature Communications, 2024).

Target: T1, Lsr2Msm (Mycolicibacterium smegmatis, UniProt A0R576)
T1 construct: gene MSMEG_6092; recombinant, E. coli BL21 (DE3), modified pET28a, C-terminal His-tag, Ni-NTA purified
Experiment: isothermal titration calorimetry
Type: binding

SMILES: Nc1nc2c(ncn2[C@@H]2O[C@@H]3CO[P@](=O)(O)O[C@H]4[C@@H](O)[C@H](n5cnc6c(=O)[nH]c(N)nc65)O[C@@H]4CO[P@](=O)(O)O[C@H]3[C@H]2O)c(=O)[nH]1 [c-di-GMP]
- Kd: 96.4 nM
